# Data taken from PubChem BioAssay (NCI).
#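 Grown in 96-well plates, cells were treated for 48 hours with each compound at five concentrations. Insufficient inhibition: endpoint recorded as highest concentration tested. GI50 is the concentration that inhibits growth by half. TGI denotes the concentration required for complete inhibition of growth.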
# Columns and labels:
# Assay in all cases: NCI tumour cell line growth inhibition, 48 h
# [1] = tested on: HOP-92 NSCLC
# [2] = tested on: U251 CNS
# [3] = tested on: HS 578T breast
# [4] = tested on: MDA-MB-435
# [5] = tested on: HL-60(TB) leukemia
# [6] = tested on: OVCAR-4 ovarian
# [7] = tested on: BT-549 breast
# [8] = tested on: SN12C renal
# [9] = tested on: M14 melanoma
# [10] = tested on: NCI/ADR-RES ovarian
# [11] = tested on: ACHN renal
# [12] = tested on: EKVX NSCLC
# [13] = tested on: TK-10 renal
# [14] = tested on: HCT-15 colon
# [15] = tested on: HT29 colon
# [16] = tested on: NCI-H522 lung
# [17] = tested on: SK-MEL-2 melanoma
# [18] = tested on: NCI-H23 lung
# [19] = tested on: OVCAR-3 ovarian
# [20] = tested on: SF-539 CNS
# [21] = tested on: SK-MEL-28 melanoma
# [22] = tested on: MDA-MB-231 breast
# [23] = tested on: MOLT-4 leukemia
# [24] = tested on: UACC-257 melanoma
# [25] = tested on: OVCAR-8 ovarian
# [26] = tested on: KM12 colon
# [27] = tested on: HOP-62 NSCLC
# [28] = tested on: SF-295 CNS
# [29] = tested on: 786-0 renal
# [30] = tested on: SK-OV-3 ovarian
# [31] = tested on: CAKI-1 renal
# [32] = tested on: SR leukemia
# [33] = tested on: HCC-2998 colon
# [34] = tested on: CCRF-CEM leukemia
# [35] = tested on: IGROV1 ovarian
# [36] = tested on: A498 renal
# [37] = tested on: LOX IMVI melanoma
# [38] = tested on: SW-620 colon
# [39] = tested on: OVCAR-5 ovarian
# [40] = tested on: PC-3 prostate
# [41] = tested on: DU-145 prostate
# [42] = tested on: SNB-75 CNS
# [43] = tested on: HCT-116 colon
# [44] = tested on: SF-268 CNS
# [45] = tested on: K-562 leukemia
# [46] = tested on: MCF7 breast
# [47] = tested on: RPMI-8226 leukemia
# [48] = tested on: UACC-62 melanoma
# [49] = tested on: RXF 393 renal
# [50] = tested on: SNB-19 CNS
# [51] = tested on: NCI-H460 lung
# [52] = tested on: T-47D breast
# [53] = tested on: COLO 205 colon
# [54] = tested on: SK-MEL-5 melanoma
# [55] = tested on: A549 NSCLC
# [56] = tested on: UO-31 renal
# [57] = tested on: NCI-H226 lung
smiles,measurement,setting,value
COc1ccc(/C=N/Nc2nc(N)nc(N3CCCC3)c2C#N)cc1,GI50,[1],17.8 µM
same,TGI,[1],36.4 µM
same,GI50,[2],17.6 µM
same,TGI,[2],45.2 µM
same,GI50,[3],13 µM
same,TGI,[3],34 µM
same,GI50,[4],24.1 µM
same,TGI,[4],64.6 µM
same,GI50,[5],28.2 µM
same,TGI,[5],86.6 µM
same,GI50,[6],23.3 µM
same,TGI,[6],47.4 µM
same,GI50,[7],19.1 µM
same,TGI,[7],46.3 µM
same,GI50,[8],18.6 µM
same,TGI,[8],35.8 µM
same,GI50,[9],17 µM
same,TGI,[9],36.5 µM
same,GI50,[10],14.1 µM
same,TGI,[10],40.2 µM
same,GI50,[11],17.4 µM
same,TGI,[11],34.5 µM
same,GI50,[12],25.9 µM
same,TGI,[12],60.3 µM
same,GI50,[13],19.4 µM
same,TGI,[13],39.9 µM
same,GI50,[14],17.2 µM
same,TGI,[14],47.2 µM
same,GI50,[15],34.7 µM
same,TGI,[15],> 100 µM
same,GI50,[16],21.9 µM
same,TGI,[16],47.7 µM
same,GI50,[17],21.4 µM
same,TGI,[17],46.1 µM
same,GI50,[18],20.5 µM
same,TGI,[18],48.1 µM
same,GI50,[19],21.5 µM
same,TGI,[19],40.2 µM
same,GI50,[20],6.5 µM
same,TGI,[20],21.8 µM
same,GI50,[21],30.3 µM
same,TGI,[21],78.2 µM
same,GI50,[22],12.2 µM
same,TGI,[22],32.9 µM
same,GI50,[23],17.8 µM
same,TGI,[23],58.9 µM
same,GI50,[24],21.6 µM
same,TGI,[24],44.7 µM
same,GI50,[25],7.82 µM
same,TGI,[25],47.2 µM
same,GI50,[26],24.8 µM
same,TGI,[26],70.8 µM
same,GI50,[27],20.2 µM
same,TGI,[27],40.9 µM
same,GI50,[28],16.8 µM
same,TGI,[28],36 µM
same,GI50,[29],16.2 µM
same,TGI,[29],31.2 µM
same,GI50,[30],27.1 µM
same,TGI,[30],73.3 µM
same,GI50,[31],20.9 µM
same,TGI,[31],40.3 µM
same,GI50,[32],7.72 µM
same,TGI,[32],27.5 µM
same,GI50,[33],8.59 µM
same,TGI,[33],26.1 µM
same,GI50,[34],17.2 µM
same,TGI,[34],49.2 µM
same,GI50,[35],21 µM
same,TGI,[35],44.4 µM
same,GI50,[36],12.9 µM
same,TGI,[36],28.1 µM
same,GI50,[37],7.39 µM
same,TGI,[37],> 100 µM
same,GI50,[38],30.4 µM
same,TGI,[38],> 100 µM
same,GI50,[39],24.3 µM
same,TGI,[39],47 µM
same,GI50,[40],14.7 µM
same,TGI,[40],32.2 µM
same,GI50,[41],11.8 µM
same,TGI,[41],32 µM
same,GI50,[42],23.6 µM
same,TGI,[42],51.8 µM
same,GI50,[43],5.89 µM
same,TGI,[43],22.5 µM
same,GI50,[44],17.7 µM
same,TGI,[44],42 µM
same,GI50,[45],13 µM
same,TGI,[45],28.7 µM
same,GI50,[46],15.3 µM
same,TGI,[46],47.8 µM
same,GI50,[47],14.1 µM
same,TGI,[47],39 µM
same,GI50,[48],18.9 µM
same,TGI,[48],38.4 µM
same,GI50,[49],10.2 µM
same,TGI,[49],31.1 µM
same,GI50,[50],25.7 µM
same,TGI,[50],72.5 µM
same,GI50,[51],16.4 µM
same,TGI,[51],46.7 µM
same,GI50,[52],31.2 µM
same,TGI,[52],89.4 µM
same,GI50,[53],37.1 µM
same,TGI,[53],> 100 µM
same,GI50,[54],19.3 µM
same,TGI,[54],39 µM
same,GI50,[55],13.4 µM
same,TGI,[55],50.8 µM
same,GI50,[56],20.6 µM
same,TGI,[56],38.1 µM
same,GI50,[57],12.4 µM
same,TGI,[57],30.6 µM
